Results on 20 compounds are retold here after patent US20080234262A1 (Wyeth, priority 2007, published 2008).

Structures are written as SMILES.

In one test the target is PI3K (Homo sapiens, UniProt P42336). The test can be described thus: Fluorescence polarization assay for PI3K.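 Further: PI3K kinase reaction on PIP2 with ATP, 30-60 min, product sensed by GST-GRP with red probe in fluorescence polarization (mP), controls without enzyme and at zero time.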 The note with it: PI3Kα; read-out: PI3Kα IC50. It counts as biochemical.
For the next test, the system named is prostate line LNCap. Put plainly: In vitro cell culture growth assay (MTS), LNCap. The test is classed as cell-based, human. Particulars: Homo sapiens, LNCaP, 72 h, LNCap cells, three days after drug treatment.
The next test concerns breast line MDA468. Put plainly: In vitro cell culture growth assay (MTS), MDA468. The test is classed as cell-based, human. Particulars: Homo sapiens, 72 h, MDA468 cells, three days after drug treatment. The method, then: Human tumor cell lines used include prostate lines LNCap and PC3MM2, breast lines MDA468, MCF7, renal line HTB44 (A498), colon line HCT116, and ovarian line OVCAR3. Cells were plated in 96-well culture plates. One day following plating, the inhibitors were added to cells. Three days after drug treatment, viable cell densities were determined by metabolic conversion (by viable cells) of the dye MTS, a well established cell proliferation assay. The assays were performed using an assay kit purchased from Promega Corp. (Madison, Wis.) following the protocol supplied with the kit. The MTS assay results were read in a 96-well plate reader by measuring absorbance at 490 nm. The effect of each treatment was calculated as percent of control growth relative to the vehicle-treated cells grown in the same culture plate.

PI3K, sequence (P42336 whole entry): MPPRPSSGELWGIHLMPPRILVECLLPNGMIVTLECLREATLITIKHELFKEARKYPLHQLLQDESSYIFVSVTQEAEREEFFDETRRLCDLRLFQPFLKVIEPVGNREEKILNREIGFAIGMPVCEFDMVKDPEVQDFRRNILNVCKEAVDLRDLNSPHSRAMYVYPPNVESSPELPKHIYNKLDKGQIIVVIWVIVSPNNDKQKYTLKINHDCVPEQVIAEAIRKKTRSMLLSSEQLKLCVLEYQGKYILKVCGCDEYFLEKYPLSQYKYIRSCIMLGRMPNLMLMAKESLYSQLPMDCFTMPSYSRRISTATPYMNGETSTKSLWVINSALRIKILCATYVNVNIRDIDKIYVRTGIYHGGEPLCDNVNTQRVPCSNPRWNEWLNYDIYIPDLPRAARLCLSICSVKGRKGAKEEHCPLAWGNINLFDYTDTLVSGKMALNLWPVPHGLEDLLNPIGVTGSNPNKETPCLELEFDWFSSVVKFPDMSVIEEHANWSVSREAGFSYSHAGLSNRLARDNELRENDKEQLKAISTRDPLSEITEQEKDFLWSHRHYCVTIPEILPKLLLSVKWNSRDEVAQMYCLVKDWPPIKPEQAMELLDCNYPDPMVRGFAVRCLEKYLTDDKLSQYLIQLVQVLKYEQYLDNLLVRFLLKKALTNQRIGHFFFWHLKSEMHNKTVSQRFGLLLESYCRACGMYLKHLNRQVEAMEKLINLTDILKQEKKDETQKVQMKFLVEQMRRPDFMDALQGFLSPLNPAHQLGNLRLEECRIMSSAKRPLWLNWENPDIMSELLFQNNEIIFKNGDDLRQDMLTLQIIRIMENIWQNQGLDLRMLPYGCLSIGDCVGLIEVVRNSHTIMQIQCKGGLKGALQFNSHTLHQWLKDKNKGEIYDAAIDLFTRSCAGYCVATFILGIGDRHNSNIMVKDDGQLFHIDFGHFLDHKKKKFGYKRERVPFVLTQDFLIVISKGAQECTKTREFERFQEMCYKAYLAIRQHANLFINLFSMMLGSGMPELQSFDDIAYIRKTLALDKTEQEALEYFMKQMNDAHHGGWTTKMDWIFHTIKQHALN
PI3K, sequence (P27986 whole entry partner): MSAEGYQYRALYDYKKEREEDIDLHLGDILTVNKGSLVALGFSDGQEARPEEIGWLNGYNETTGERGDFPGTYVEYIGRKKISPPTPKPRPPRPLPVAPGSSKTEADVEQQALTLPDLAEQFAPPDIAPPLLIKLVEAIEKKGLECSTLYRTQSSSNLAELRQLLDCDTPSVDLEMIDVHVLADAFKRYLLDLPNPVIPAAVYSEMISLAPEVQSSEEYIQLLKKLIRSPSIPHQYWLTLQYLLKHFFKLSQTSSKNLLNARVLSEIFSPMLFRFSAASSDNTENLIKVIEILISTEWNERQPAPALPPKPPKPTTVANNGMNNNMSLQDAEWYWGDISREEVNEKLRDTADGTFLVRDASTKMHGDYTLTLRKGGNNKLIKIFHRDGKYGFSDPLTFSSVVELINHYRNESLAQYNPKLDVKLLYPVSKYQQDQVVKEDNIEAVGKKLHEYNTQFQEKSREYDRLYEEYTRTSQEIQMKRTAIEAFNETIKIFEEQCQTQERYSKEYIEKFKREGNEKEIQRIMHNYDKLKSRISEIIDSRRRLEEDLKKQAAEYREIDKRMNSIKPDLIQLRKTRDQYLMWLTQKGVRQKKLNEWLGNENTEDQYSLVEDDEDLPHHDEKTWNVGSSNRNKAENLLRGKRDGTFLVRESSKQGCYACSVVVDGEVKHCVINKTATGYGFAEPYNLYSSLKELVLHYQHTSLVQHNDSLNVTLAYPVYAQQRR

Broadly, the IC50 is the midpoint of a concentration-inhibition curve. On to `CNC(=O)Nc1ccc(-c2nc(N3CCOCC3)c3cnn(C4CCN(C(=O)c5ccccc5)CC4)c3n2)cc1` [Example 336, 1-{4-[1-(1-benzoylpiperidin-4-yl)-4-morpholin-4-yl-1H-pyrazolo[3,4-d]pyrimidin-6-yl]phenyl}-3-methylurea], for which the figures for the IC50 at PI3K and with prostate line LNCap were 70 nM and 27 nM, respectively.
With `O=C(Nc1ccc(-c2nc(N3CCOCC3)c3cnn(C4CCN(C(=O)c5cccnc5)CC4)c3n2)cc1)Nc1cccs1` [Example 413, 1-(4-{4-morpholin-4-yl-1-[1-(pyridin-3-ylcarbonyl)piperidin-4-yl]-1H-pyrazolo[3,4-d]pyrimidin-6-yl}phenyl)-3-(2-thienyl)urea], the IC50 at PI3K came to 15 nM; with prostate line LNCap, 35 nM.
Regarding `O=C(Nc1ccncc1)Nc1ccc(-c2nc(N3CCOCC3)c3cnn(C4CCN(C(=O)c5cccnc5)CC4)c3n2)cc1` [Example 344, 1-(4-{4-morpholin-4-yl-1-[1-(pyridin-3-ylcarbonyl)piperidin-4-yl]-1H-pyrazolo[3,4-d]pyrimidin-6-yl}phenyl)-3-pyridin-4-ylurea], the IC50 at PI3K was determined as 15 nM; in the test on prostate line LNCap it was 27 nM.
Taken in the same sequence, the figures for `O=C(Nc1ccc(-c2nc(N3CCOCC3)c3cnn(C4CCN(C(=O)c5ccccc5)CC4)c3n2)cc1)Nc1cccnc1` [Example 379, 1-{4-[1-(1-benzoylpiperidin-4-yl)-4-morpholin-4-yl-1H-pyrazolo[3,4-d]pyrimidin-6-yl]phenyl}-3-pyridin-3-ylurea] were 35 nM and 27 nM.
In the case of `O=C(Nc1ccc(-c2nc(N3CCOCC3)c3cnn(C4CCN(C(=O)c5cccnc5)CC4)c3n2)cc1)Nc1cccnc1` [Example 302, 1-(4-{4-morpholin-4-yl-1-[1-(pyridin-3-ylcarbonyl)piperidin-4-yl]-1H-pyrazolo[3,4-d]pyrimidin-6-yl}phenyl)-3-pyridin-3-ylurea], the IC50 at PI3K is 32 nM; in the test on prostate line LNCap, 200 nM.
Taken in the same sequence, the figures for `CNC(=O)Nc1ccc(-c2nc(N3CCOCC3)c3cnn(C4CCN(C(=O)c5ccccc5Cl)CC4)c3n2)cc1` [Example 355, 1-(4-{1-[1-(2-chlorobenzoyl)piperidin-4-yl]-4-morpholin-4-yl-1H-pyrazolo[3,4-d]pyrimidin-6-yl}phenyl)-3-methylurea] were 79 nM and 27 nM.
Taken in the same sequence, the figures for `CNC(=O)Nc1ccc(-c2nc(N3CCOCC3)c3cnn(C4CCN(C(=O)c5cccc(C)c5)CC4)c3n2)cc1` [Example 366, 1-methyl-3-(4-{1-[1-(3-methylbenzoyl)piperidin-4-yl]-4-morpholin-4-yl-1H-pyrazolo[3,4-d]pyrimidin-6-yl}phenyl)urea] were 73 nM and 27 nM.
The like results for `CCNC(=O)Nc1ccc(-c2nc(N3CCOCC3)c3cnn(C4CCN(Cc5cccnc5)CC4)c3n2)cc1` [Example 318, 1-ethyl-3-(4-{4-morpholin-4-yl-1-[1-(pyridin-3-ylmethyl)piperidin-4-yl]-1H-pyrazolo[3,4-d]pyrimidin-6-yl}phenyl)urea] were, in that order, 187 nM and 27 nM.
`O=C(NCCF)Nc1ccc(-c2nc(N3CCOCC3)c3cnn(C4CCN(Cc5cccnc5)CC4)c3n2)cc1` [Example 315, 1-(2-fluoroethyl)-3-(4-{4-morpholin-4-yl-1-[1-(pyridin-3-ylmethyl)piperidin-4-yl]-1H-pyrazolo[3,4-d]pyrimidin-6-yl}phenyl)urea]: the IC50 on PI3K amounted to 338 nM; in the test on prostate line LNCap it was 27 nM.
As to `CCNC(=O)Nc1ccc(-c2nc(N3CCOCC3)c3cnn(C4CCN(C(=O)c5ccccc5)CC4)c3n2)cc1` [Example 381, 1-{4-[1-(1-benzoylpiperidin-4-yl)-4-morpholin-4-yl-1H-pyrazolo[3,4-d]pyrimidin-6-yl]phenyl}-3-ethylurea], the 50% inhibitory concentration (IC50) at PI3K is 355 nM; in the test on prostate line LNCap it was 27 nM.
As for `O=C(Nc1ccc(-c2nc(N3CCOCC3)c3cnn(C4CCN(Cc5cccnc5)CC4)c3n2)cc1)Nc1cccnc1` [Example 314, 1-(4-{4-morpholin-4-yl-1-[1-(pyridin-3-ylmethyl)piperidin-4-yl]-1H-pyrazolo[3,4-d]pyrimidin-6-yl}phenyl)-3-pyridin-3-ylurea], the results for the IC50 at PI3K and in the test on prostate line LNCap were 20 nM and 27 nM, respectively.
For the compound `COC(=O)N1CCC(n2ncc3c(N4CCOCC4)nc(-c4ccc(NC(=O)Nc5ccc(N6CCN(C)CC6)cc5)cc4)nc32)CC1` [Compound 910, methyl 4-{6-[4-({[4-(4-methylpiperazin-1-yl)phenyl]carbamoyl}amino)phenyl]-4-morpholin-4-yl-1H-pyrazolo[3,4-d]pyrimidin-1-yl}piperidine-1-carboxylate], the IC50 with breast line MDA468 was determined as 0.8 nM.
The same measure, in the same setting: then `CC(C)OC(=O)N1CCC(n2ncc3c(N4CCOCC4)nc(-c4ccc(NC(=O)NC5CC5)cc4)nc32)CC1` [Compound 835, isopropyl 4-(6-{4-[(cyclopropylcarbamoyl)amino]phenyl}-4-morpholin-4-yl-1H-pyrazolo[3,4-d]pyrimidin-1-yl)piperidine-1-carboxylate], with 320 nM; and `O=C(Nc1ccccc1)Nc1ccc(-c2nc(N3CCOCC3)c3cnn(C4CCN(Cc5ccccc5)CC4)c3n2)cc1` [Compound 503, 1-{4-[1-(1-benzylpiperidin-4-yl)-4-morpholin-4-yl-1H-pyrazolo[3,4-d]pyrimidin-6-yl]phenyl}-3-phenylurea], with 1050 nM.
`CN(C)CCNC(=O)Nc1ccc(-c2nc(N3CCOCC3)c3cnn(C4CCN(Cc5ccccc5)CC4)c3n2)cc1` [Compound 268, 1-{4-[1-(1-benzylpiperidin-4-yl)-4-morpholin-4-yl-1H-pyrazolo[3,4-d]pyrimidin-6-yl]phenyl}-3-[2-(dimethylamino)ethyl]urea] gave an IC50 with breast line MDA468 of 600 nM.
Same read-out and setting: the result for `COC(=O)N1CCC(n2ncc3c(N4CCOCC4)nc(-c4ccc(NC(=O)Nc5ccc(CCO)cc5)cc4)nc32)CC1` [Compound 913, methyl 4-{6-[4-({[4-(2-hydroxyethyl)phenyl]carbamoyl}amino)phenyl]-4-morpholin-4-yl-1H-pyrazolo[3,4-d]pyrimidin-1-yl}piperidine-1-carboxylate] reads 1.3 nM; that for `O=C(NCCO)Nc1ccc(-c2nc(N3CCOCC3)c3cnn(C4CCN(Cc5ccccc5)CC4)c3n2)cc1` [Compound 510, 1-{4-[1-(1-benzylpiperidin-4-yl)-4-morpholin-4-yl-1H-pyrazolo[3,4-d]pyrimidin-6-yl]phenyl}-3-(2-hydroxyethyl)urea], 50 nM; that for `O=C(NCCO)Nc1ccc(-c2nc(N3CCOCC3)c3cnn(C4CCN(Cc5ccccc5)CC4)c3n2)cc1` [Example 265, 1-{4-[1-(1-benzylpiperidin-4-yl)-4-morpholin-4-yl-1H-pyrazolo[3,4-d]pyrimidin-6-yl]phenyl}-3-(2-hydroxyethyl)urea], 100 nM.
As for `O=C(Nc1ccccc1)Nc1ccc(-c2nc(N3CCOCC3)c3cnn(C4CCN(Cc5ccccc5)CC4)c3n2)cc1` [Example 257, 1-{4-[1-(1-benzylpiperidin-4-yl)-4-morpholin-4-yl-1H-pyrazolo[3,4-d]pyrimidin-6-yl]phenyl}-3-phenylurea], in the test on breast line MDA468, the IC50 stood at 1100 nM.
The same measure, in the same setting: the result for `CNC(=O)Nc1ccc(-c2nc(N3CCOCC3)c3cnn(C4CCN(Cc5ccccc5)CC4)c3n2)cc1` [Example 206, N-{4-[1-(1-benzylpiperidin-4-yl)-4-morpholin-4-yl-1H-pyrazolo[3,4-d]pyrimidin-6-yl]phenyl}-N′-methylurea] reads 100 nM.
